# Read-outs that look alike come from different tables or passages of the source.
# Legend:
# HepG2 human liver cells [1] = assay: HepG2 cytotoxicity, CellTiter-Glo, 72 hr; settings: HepG2, 72 h, read-out: HepG2 IC50
# [2] = Vero cell cytotoxicity, CellTiter-Glo, 2 days; format: cell-based; settings: African green monkey, 2 days exposure
# Experimental: Vero cells (CCL81) were cultured in high‐glucose Dulbecco's modified Eagle medium with GlutaMax (Invitrogen), 10% v/v fetal bovine serum, 50 units/mL penicillin, and 50 μg/mL streptomycin. Cells were exposed to compounds for 2 days and viability was determined using CellTiter‐Glo (Promega).
# M. tuberculosis H37Rv = assay: microbe, parasite or virus in culture; format: cell-based, Mycobacterium tuberculosis
# M. tuberculosis = assay: Kill kinetics against replicating M. tuberculosis (CFU); format: cell-based, Mycobacterium tuberculosis; settings: replicating conditions; for bactericidal activity (in words): 7H9-OADC-Tw medium, 1× to 10× MIC
# HepG2 human liver cells [3] = system: HepG2 human liver cells
# [4] = Mycobacterium tuberculosis, H37RV, 120 h, […], mean ± SD (n in parentheses), read-out: MIC
SMILES,IC50 (HepG2 human liver cells [1]) [µM],IC50 at 2 days ([2]; Vero cells (CCL81)) [µM],MIC (M. tuberculosis H37Rv; [4]) [µM],anti-tubercular activity (in words) (M. tuberculosis H37Rv),other results
"Oc1cccc2cccnc12 [Compound 1, 8‐hydroxyquinoline]",7.6 ± 0.68,,,,"IC50 at 2 days ([2]; Vero cells): 1.4 µM; MIC (M. tuberculosis H37Rv): 3.6 ± 0.20 (2) μM; MIC (M. tuberculosis H37Rv; Mycobacterium tuberculosis, H37RV, 120 h): 3.6 µM"
Cc1ccc(O)c2ncccc12 [Compound 2],6.5 ± 1.7,1.4,3.1 ± 1.1,,
Oc1ccc(Br)c2cccnc12 [Compound 3],6.9 ± 0.59,1.8,2.9 ± 0.4,,
Oc1ccc(Cl)c2cccnc12 [Compound 4],7.6 ± 1.5,2.4,3 ± 1,,"bactericidal activity (in words) (M. tuberculosis): bactericidal; logs of bacteria killed (M. tuberculosis; 12 μM (2.5× MIC) and higher, within 14 days): ≥ 3 logs"
Oc1c(Cl)cc(Cl)c2cccnc12 [Compound 5],7.6 ± 1.2,1.3,8.4,,"MIC (M. tuberculosis H37Rv; […], mean ± SD (n in parentheses)): 8.4 ± 4.5 (6) μM"
O=[N+]([O-])c1ccc(O)c2ncccc12 [Compound 6],7.7 ± 1.8,2.9,4.8 ± 3.3,,
Oc1ccc(COC2CCCCC2)c2cccnc12 [Compound 7],4.9 ± 1.9,6.2,3.2 ± 0.85,,
Oc1ccc(CNc2cccc(Br)c2)c2cccnc12 [Compound 8],12 ± 0.5,7.5,> 20,abrogated the anti‐tubercular activity,
Oc1ccc(CN2CCN(c3ccc(F)cc3)CC2)c2cccnc12 [Compound 9],9.8 ± 2.2,5.8,> 20,abrogated the anti‐tubercular activity,
[O-][n+]1cccc2cccc(O)c21 [Compound 10],< 88,> 20,> 20,loss of activity,cytotoxicity against HepG2 cells (in words) (HepG2 human liver cells [3]): significant reduction of cytotoxicity
Cc1ccc2cccc(O)c2n1 [Compound 11],28 ± 9,,> 20,not tolerated,IC50 at 2 days ([2]; Vero cells): 12 µM
Nc1ccc2cccc(O)c2n1 [Compound 12],12 ± 0.5,,4.6 ± 1.7,retained measurable anti‐tubercular activity,IC50 at 2 days ([2]; Vero cells): 3.3 µM
CNc1ccc2cccc(O)c2n1 [Compound 13],22 ± 2.8,8.2,6.4 ± 0.35,retained measurable anti‐tubercular activity,
CN(C)c1ccc2cccc(O)c2n1 [Compound 14],> 100,> 50,> 20,loss of activity,
Oc1cccc2ccc(N3CCCCC3)nc12 [Compound 15],> 100,> 50,> 20,loss of activity,
Oc1cccc2ccc(Nc3ccccc3)nc12 [Compound 16],3.8 ± 0.45,0.94,> 20,loss of activity,
CC(=O)Nc1ccc2cccc(O)c2n1 [Compound 17],9 ± 1,4.9,> 20,not tolerated,
Cc1cc(C)n(-c2ccc3cccc(O)c3n2)n1 [Compound 19],12 ± 0.5,19,> 20,,
COc1cccc(/C=C/c2ccc3cccc(O)c3n2)c1 [Compound 21],10 ± 1,2.9,8.7 ± 0.2,,
COc1ccccc1/C=C/c1ccc2cccc(O)c2n1 [Compound 22],12 ± 2,6.2,13 ± 9.1,,
Oc1cccc2ccc(/C=C/c3ccc4c(c3)OCO4)nc12 [Compound 23],9.1 ± 3,6,15 ± 5,,
Oc1cccc2ccc(/C=C/c3cccc(F)c3)nc12 [Compound 24],8 ± 0.6,7.2,13 ± 6.3,,"bactericidal activity (in words) (M. tuberculosis): bactericidal; log kill (sterilized the culture) (M. tuberculosis; 27 μM (10× MIC), within 14 days): > 4 log; logs of bacteria killed (M. tuberculosis; concentrations above 14 μM (5× MIC)): ≥ 2 logs"
Oc1cccc2ccc(/C=C/c3ccccc3Cl)nc12 [Compound 25],12 ± 1,9,5.8 ± 2.2,,
OCc1ccccc1CN1CCN(Cc2ccc3cccc(O)c3n2)CC1 [Compound 26],14 ± 0.5,11,> 20,not tolerated,

# Reference: article PMC6767403, “8‐Hydroxyquinolines are bactericidal against Mycobacterium tuberculosis” (Drug Development Research, 2019)
